Measurements: patent US5993889A, “Trehalose phosphorylase, its preparation and use” (Kabushiki Kaisha Hayashibara Seibutsu Kagaku Kenkyujo, priority 1996, dated 1999)

B1: trehalose phosphorylase: novel thermostable trehalose phosphorylase purified from Thermoanaerobium brockii, ATCC 35047; amino acid sequence of SEQ ID NO:4 (protein)
chain: ANKTKKPIYPFEDWVIRETQFSIDTNYRNETIFTLANGYIGMRGTFEERYSGPKNTSFNGTYINGFYEIHDIVYPEGGYGFAKIGQTMLNVADSKIIKLYVDGEEFDLLQGKILFYERVLDMKKGFVERKVKWESPTGKILEVKIKRIVSLNRQHLAAISFTMQPVNFTGKIRFVSAIDGNVSNINDSEDVRVGSNLKGKVLKTIDKSVEGLKGWIVQKTQKSNFSYACAIDNVLVADSKYEVSNSLEEDGVKVIVDLEAEKGTSYTLNKFISYYTSKDFDENKLVALALEEIEKAKNDGFETIEKEQEEFLNSFWKDADVIIEGDKALQQGIRFNEFHLLQSVGRDGKTNIAAKGLTGGGYEGHYFWDSDIYIMPFFLYTKPEIAKALVMYRYNLLDAARSRAKELGHKGALYPWRTIDGPECSAYFPAGTAQYHINADIVYALKRYVEATNDVDFLYDYGCEILFETARFWEDLGAYIPLKGNKFCINCVTGPDEYTALVDNNAYTNYMAKMNLEYAYDIANKMKKEVPQKYQKVASKLNLKDEEIVAWKKAADNMYLPYSKELDIIPQDDSFLYKERITVDEIPEDQFPLLLHWHYLNIYRYQICKQPDVLLLMFLQREKFTKDELKKNYDYYEPITTHDSSLSPAIFSILANEIGYTDKAYKYFMMTARMDLDDYNDNVKDGIHAASMAGTWSAVVNGFGGMRVYTNELHFEPRLPKEWNLLSFNVRYKGRKINVKLTKENVVFALLEGEPIEIYYFDKKILLEKGEIK

How the values were obtained:
trehalose phosphorylase [1] = biological target: T1, trehalose phosphorylase (Thermoanaerobacter brockii, UniProt Q8L164); assay: Trehalose phosphorylase activity assay: inhibition and activation by added substances; assay type: biochemical, Thermoanaerobium brockii; settings: one mM
T1 construct: recombinant E. coli enzyme (pTTP4) equivalent
T1 sequence (Q8L164 2-774): B1 chain
Procedure: (§1) The present trehalose phosphorylase activity is assayed as follows: Add 0.2 ml of an enzyme solution to 2 ml of 20 mM phosphate buffer (pH 7.0) containing 1.0 w/v % trehalose as a substrate, incubate the solution at 60° C. for 30 min, sample the reaction mixture in an amount of 0.5 ml, and incubate the sample at 100° C. for 10 min to suspend the enzymatic reaction. Add 0.5 ml of D-glucose oxidase/peroxidase reagent to the heated sample, stir the mixture, keep the mixture at 40° C. for 30 min, add 2.5 ml of 5-N hydrochloric acid, stir the resulting mixture, and measure the absorbance of the mixture at a wavelength of 525 nm. One unit of the enzyme activity is defined as the enzyme that forms one […] of D-glucose per one minute. The activity of maltose- and kojibiose-phosphorylases can be assayed similarly as the same assay as indicated above except that the trehalose as a substrate is respectively replaced with maltose and kojibiose.
Influences of temperatures and pHs on the present trehalose phosphorylase activity were studied in accordance with the assay for enzyme activity. To study the influence of temperatures, the enzyme was reacted at temperatures of about 50-85° C. in place of 60° C. as used in the enzyme assay. In the case of studying the influence of pHs, the enzyme was reacted at pHs of about 4-9 in place of the buffer's pH as used in the assay for the enzyme activity. In both cases, the enzymatic reactions were suspended similarly as in the enzyme assay, followed by quantifying the formed glucose. […] The thermal stability of the enzyme was determined by incubating the enzyme dissolved in 10 mM phosphate buffer (pH 7.0) at a temperature of about 40-85° C. for one hour, cooling the incubated enzyme, and assaying for the residual enzyme activity according to the enzyme assay. The pH stability of the enzyme was determined by dissolving the enzyme in buffers with different pHs of about 4-10, keeping each enzyme solution at 4° C. for 24 hours, adjusting each solution to give a pH of 7.0, and assaying for the residual enzyme activity according to the enzyme assay. […] The enzyme activity was inhibited by one mM Cu^++, Pb^++, Zn^++, Hg^++, Mg^++, or Mn^++.

trehalose phosphorylase [2] = biological target: T1, trehalose phosphorylase; assay: Substrate specificity for saccharide-hydrolyzing reaction by trehalose phosphorylase (TLC); assay type: biochemical, Thermoanaerobium brockii; parameters: key: +: Hydrolyzed by the action of the present trehalose phosphorylase.; -: Not hydrolyzed by the action of the present trehalose phosphorylase; settings: saccharide 2 w/v %, 10 units/g saccharide purified enzyme, 5 mM disodium hydrogenphosphate, 60° C., pH 7.0, 24 hours
Procedure: An aqueous solution of a saccharide selected from D-glucose, maltose, sucrose, lactose, trehalose, neotrehalose, cellobiose, melibiose, kojibiose, isomaltose, sophorose, gentibiose, nigerose, laminaribiose, maltopentaose, and 4-O-α-D-glucosyltrehalose was mixed with 10 units/g saccharide, d.s.b., of a purified trehalose phosphorylase obtained by the method in Experiment 2, and incubated in the presence of 5 mM disodium hydrogenphosphate at 60° C. and pH 7.0 for 24 hours. The saccharide concentration of each reaction solution was 2 w/v %. Pre-reaction solutions and post-reaction mixtures were subjected to thin layer chromatography (hereinafter abbreviated as "TLC") using "KIESELGEL 60 (20×20 cm)", an aluminum plate for TLC commercialized by Merck & Co., Inc., Rahway, USA. Samples were developed once at ambient temperature on the plate using 1-butanol/pyridine/water (=7:3:1 by volume) as a developing solvent system, and the plate was sprayed with 20 v/v % sulfuric acid/methanol solution, and heated at 110° C. for about 10 min for coloration. Comparing spots of the solutions and mixtures detected on the plates, it was checked whether the enzyme acted on the saccharides.

trehalose phosphorylase [3] = biological target: T1, trehalose phosphorylase; assay: Specificity to acceptor in glucosyl-transferring saccharide-forming reaction by trehalose phosphorylase (TLC); assay type: biochemical, Thermoanaerobium brockii; settings: used as donor in place of β-D-glucose-1-phosphoric acid
Procedure: An aqueous solution, which dissolved in an equal amount, by dry weight, […], […] obtained by the method in Experiment 2, and enzymatically reacted at 60° C. and pH 7.0 for 24 hours. Similarly as in Experiment 5, the pre-reaction solutions and the post-reaction mixtures were subjected to TLC, followed by coloring the plates. Comparing spots of the samples of the solutions and mixtures detected on the plates, it was judged whether transferred saccharides were formed based on newly detected spots of the post reaction mixtures. By macroscopically observing the coloration degree of the newly detected spots, the yield of the transferred saccharides was relatively evaluated.

[4] = Isoelectric point by polyacrylamide gel electrophoresis using ampholyte; assay type: physicochemical; settings: electrophoresis using 2 w/v % ampholyte
[5] = Thermal and pH stability of trehalose phosphorylase (residual enzyme activity); assay type: physicochemical
Procedure: as §1, with “The activity of maltose- and kojibiose-phosphorylases can be assayed similarly as the same assay as indicated above except that the trehalose as a substrate is respectively replaced with maltose and kojibiose.” left out
(§2) Influences of temperatures and pHs on the present trehalose phosphorylase activity were studied in accordance with the assay for enzyme activity. […] In both cases, the enzymatic reactions were suspended similarly as in the enzyme assay, followed by quantifying the formed glucose. […] The thermal stability of the enzyme was determined by incubating the enzyme dissolved in 10 mM phosphate buffer (pH 7.0) at a temperature of about 40-85° C. for one hour, cooling the incubated enzyme, and assaying for the residual enzyme activity according to the enzyme assay. […]

[6] = Trehalose phosphorylase activity assay (specific activity, influence of temperature and pH); assay type: biochemical
Procedure: as §1
The yield of the purified enzyme specimen, obtained by the above purification steps, was about 25% with respect to the enzyme activity of the supernatant of the disrupted cell suspension. […] Protein was quantified according to the Lowry method using calf serum albumin as a standard protein.
as §2, with “assay. The pH stability of the enzyme was determined by dissolving the enzyme in buffers with different pHs of about 4-10, keeping each enzyme solution at 4° C. for 24 hours, adjusting each solution to give a pH of 7.0, and assaying for the residual enzyme activity according to the enzyme assay.” for “assay.”

Molecule	Decomposition (trehalose phosphorylase [2])	other results
O[C@H](CS)[C@H](O)CS (racemic) [dithiothreitol]		Activation and stabilization of the enzyme (trehalose phosphorylase [1]): Activated
OC[C@H]1O[C@H](O[C@H]2O[C@H](CO)[C@@H](O[C@H]3O[C@H](CO)[C@@H](O)[C@H](O)[C@H]3O)[C@H](O)[C@H]2O)[C@H](O)[C@@H](O)[C@@H]1O [4-O-α-D-glucosyltrehalose]	-	
OC[C@H]1O[C@@H](O[C@H]2[C@H](O)[C@@H](O)C(O)O[C@@H]2CO)[C@H](O)[C@@H](O)[C@@H]1O (stereo partly drawn) [Cellobiose]	-	
[Cu+2] [Cu^++]		Enzyme activity inhibition (trehalose phosphorylase [1]): inhibited
OC[C@H]1OC(O)[C@H](O)[C@@H](O)[C@@H]1O (stereo partly drawn) [D-Glucose]	-	
OC[C@H]1O[C@@H](OC[C@H]2OC(O)[C@H](O)[C@@H](O)[C@@H]2O)[C@H](O)[C@@H](O)[C@@H]1O (stereo partly drawn) [Gentibiose]	-	
[Hg+2] [Hg^++]		Enzyme activity inhibition (trehalose phosphorylase [1]): inhibited
OC[C@H]1O[C@H](OC[C@H]2OC(O)[C@H](O)[C@@H](O)[C@@H]2O)[C@H](O)[C@@H](O)[C@@H]1O (stereo partly drawn) [Isomaltose]	-	
OC[C@H]1O[C@H](O[C@H]2C(O)O[C@H](CO)[C@@H](O)[C@@H]2O)[C@H](O)[C@@H](O)[C@@H]1O (stereo partly drawn) [Kojibiose]	-	
OC[C@H]1O[C@@H](O[C@H]2[C@H](O)[C@@H](O)C(O)O[C@@H]2CO)[C@H](O)[C@@H](O)[C@H]1O (stereo partly drawn) [Lactose]	-	
OC[C@H]1O[C@@H](O[C@H]2[C@H](O)[C@@H](CO)OC(O)[C@@H]2O)[C@H](O)[C@@H](O)[C@@H]1O (stereo partly drawn) [Laminaribiose]	-	
OC[C@H]1O[C@H](O[C@H]2[C@H](O)[C@@H](O)[C@@H](O[C@H]3[C@H](O)[C@@H](O)[C@@H](O[C@H]4[C@H](O)[C@@H](O)[C@@H](O[C@H]5[C@H](O)[C@@H](O)C(O)O[C@@H]5CO)O[C@@H]4CO)O[C@@H]3CO)O[C@@H]2CO)[C@H](O)[C@@H](O)[C@@H]1O (stereo partly drawn) [Maltopentaose]	-	
OC[C@H]1O[C@H](O[C@H]2[C@H](O)[C@@H](O)[C@H](O)O[C@@H]2CO)[C@H](O)[C@@H](O)[C@@H]1O [Maltose]	-	
OC[C@H]1O[C@H](OC[C@H]2OC(O)[C@H](O)[C@@H](O)[C@@H]2O)[C@H](O)[C@@H](O)[C@H]1O (stereo partly drawn) [Melibiose]	-	
[Mg+2] [Mg^++]		Enzyme activity inhibition (trehalose phosphorylase [1]): inhibited
[Mn+2] [Mn^++]		Enzyme activity inhibition (trehalose phosphorylase [1]): inhibited
OC[C@H]1O[C@@H](O[C@H]2O[C@H](CO)[C@@H](O)[C@H](O)[C@H]2O)[C@H](O)[C@@H](O)[C@@H]1O [Neotrehalose]	-	
OC[C@H]1O[C@H](O[C@H]2[C@H](O)[C@@H](CO)OC(O)[C@@H]2O)[C@H](O)[C@@H](O)[C@@H]1O (stereo partly drawn) [Nigerose]	-	
[Pb+2] [Pb^++]		Enzyme activity inhibition (trehalose phosphorylase [1]): inhibited
OC[C@H]1O[C@@H](O[C@H]2C(O)O[C@H](CO)[C@@H](O)[C@@H]2O)[C@H](O)[C@@H](O)[C@@H]1O (stereo partly drawn) [Sophorose]	-	
OC[C@H]1O[C@@](CO)(O[C@H]2O[C@H](CO)[C@@H](O)[C@H](O)[C@H]2O)[C@@H](O)[C@@H]1O [Sucrose]	-	
OC[C@H]1O[C@H](O[C@H]2O[C@H](CO)[C@@H](O)[C@H](O)[C@H]2O)[C@H](O)[C@@H](O)[C@@H]1O [Trehalose]	+	
[Zn+2] [Zn^++]		Enzyme activity inhibition (trehalose phosphorylase [1]): inhibited
O=P(O)(O)O[C@H]1O[C@H](CO)[C@@H](O)[C@H](O)[C@H]1O [α-D-glucose-1-phosphoric acid]		Formation of glucosyl-transferred saccharide when used as saccharide donor (trehalose phosphorylase [3]): No glucosyl-transferred saccharide was obtained
B1		Isoelectric point (pI) [4]: 5.4±0.5; Thermal stability ([5]; 10 mM phosphate buffer pH 7.0, one hour): up to 60 °C; pH stability ([5]; 4° C. for 24 hours): 6.0-9.0; Optimum pH ([6]; incubated at 60° C. for 30 min): 7.0-7.5; Optimum temperature ([6]; incubated at pH 7.0 for 30 min): about 70 °C; Specific activity ([6]; purified enzyme specimen, trehalose substrate, 60° C., pH 7.0): 78.2 units/mg protein
